# Experimental data from patent publication US11135224B2, “Methods of sensitizing estrogen receptor positive (ER+) breast cancer cells to endocrine therapy” (New York University, priority 2018, dated 2021).
# How the values were obtained:
# Assay type in all cases: cell-based, human
# TamR cells (MCF7 LCC9) [1] = experiment: Colony survival assay, TamR cells
# Procedure: (§1) Cells were fixed in 70% ethanol overnight. Cells were subjected to RNaseA treatment and stained with propidium iodide (PI). Data was collected using FACScalibur and analyzed with FloJo 10.0 software. Data from 3 independent experiments are shown. SEMs are shown. **P<0.01 and ***P<0.001 by two-way ANOVA. […] TamS and TamR cells were treated with either DMSO or 1 μM 4-OH Tam and initiated on day 0. Results are representative of 3 independent experiments and presented as relative proliferation in which all samples are normalized to Day 0. Standard deviations are shown. *P<0.05 by t-test. […] Cells were treated with either DMSO or 1 μM 4-HT 24 hours after plating. Colonies scored after 10 days counting only ≥50 cells/colony. Results are representative of 3 independent experiments. SEMs are shown. ***P<0.001 by two-way ANOVA. […] Equal amounts of RNA were reverse transcribed and quantified through real-time PCR. RNA levels normalized to GAPDH using the ^−ΔΔCt method. Error bars represent SEM. […] RNA levels normalized to GAPDH using the ^−ΔΔCt method. Error bars represent SEM.
# Cells were lysed in NP-40 buffer and probed for key translation factors. β-tubulin (loading control). […] Cells were treated with either DMSO or 1 μM 4-OH Tam 24 hours after plating. Dox (1 μg/mL) was administered 24 hours after plating and removed after 72 hours. Colonies scored after 10 days counting only ≥50 cells/colony. SEM is shown. […] Cells were treated with either DMSO control or 1 μM 4-OH Tam for 72 hours in 1% CS-FBS. Dox (1 μg/mL) was administered to cells for 72 hours. […] Data was collected using LSRII UV and analyzed with FloJo software. […] Data was collected using FACScalibur and analyzed with FloJo 10.0 software. […] Data was collected using FACScalibur and analyzed with FloJo 10.0 software. […] Colonies scored after 10 days counting only ≥50 cells/colony. […]
# Hsp70 (loading control). […] Colonies were scored after 10 days counting only >50 cells/colony. […] Equal amounts of RNA were resolved by sucrose gradient centrifugation and ribosome profiles monitored by UV absorbance 254 nm. […]
# TamR cells (MCF7 LCC9) [2] = experiment: Cell cycle analysis, TamR cells; conditions: 20 nM RAD001 plus 1 μM 4-OH Tam, 72 hours
# Procedure: Cells were lysed in NP-40 buffer and probed for key translation factors. β-tubulin (loading control). […] Cells were treated with either DMSO or 1 μM 4-OH Tam 24 hours after plating. Dox (1 μg/mL) was administered 24 hours after plating and removed after 72 hours. Colonies scored after 10 days counting only ≥50 cells/colony. SEM is shown. […] Cells were treated with either DMSO control or 1 μM 4-OH Tam for 72 hours in 1% CS-FBS. Dox (1 μg/mL) was administered to cells for 72 hours. Cells were fixed in 70% ethanol overnight and subjected to RNaseA treatment. Cells were stained with Hoechst 33342. Data was collected using LSRII UV and analyzed with FloJo software. Data from 3 independent experiments are shown. SEM is shown. *P<0.05 by two-way ANOVA. […] Cap chromatography performed on TamR cells with or without 4E-BP1 cDNA overexpression. Cells were lysed in NP-40 buffer and pulldown was performed for 1 hour at 4° C. Proteins were eluted and resolved via SDS-PAGE. […] Data was collected using FACScalibur and analyzed with FloJo 10.0 software. […] Data was collected using FACScalibur and analyzed with FloJo 10.0 software. […] Colonies scored after 10 days counting only ≥50 cells/colony. […]
# (§2) Cell Cycle Analysis: Cells were trypsinized, filtered, and counted using an automated cell counter (Bio-Rad). […] Data were collected using a FACScalibur or LSRII UV and analyzed with FlowJo 10.0.
# TamR cells (MCF7 LCC9) [3] = experiment: Cell proliferation assay (MTT), TamR cells; conditions: 1 μM 4-OH Tam
# Procedure: as §1
# Endogenous eIF4E was silenced by shRNA. […]
# Cell Proliferation Assay: Cell proliferation was measured using the CellTiter 96 nonradioactive cell proliferation assay kit (Promega) according to the manufacturer's instructions. […] Absorbance was measured at 570 nm. […]
# BR7 (PDX) cells = experiment: Cell cycle analysis, BR7 (PDX) cells; conditions: 1 μM 4-OH Tam
# Procedure: as §1, §2
# TamS cells (MCF7 LCC1) = experiment: Cell cycle analysis, TamS cells with or without eIF4E overexpression; conditions: 1 μM 4-OHT for 72 h, regardless of eIF4E overexpression
# Procedure: Dox (2 μg/mL) was added 72 hours prior to lysis in NP-40 buffer. Equal protein amounts were immunoblotted as shown. β-Actin was used as a loading control. […] Dox (2 μg/mL) was added for 72 hours. Cells were subjected to exhaustive RNase A and stained with propidium iodide (PI). Flow cytometry data were collected using a FACScalibur and analyzed with FloJo software. The average of three studies is shown. […] Cells were treated with 2 μg/mL Dox for 72 hours and lysed in NP-40 buffer. Equal protein amounts were immunoblotted. β-Actin was used as a loading control. Representative results are shown. […] TamS sh-control, eIF4E-overexpressing, shTSC2, and shTSC2 and eIF4E-overexpressing cells were treated with either DMSO or 1 μM 4-OHT. (**)P<0.01; (***)P<0.0001 by two-way ANOVA. […] Results are the average of three independent studies.
# Cell Cycle Analysis: Cells were trypsinized, filtered, and counted using an automated cell counter (Bio-Rad). Cells (7×10^5) were seeded on 10-cm culture plates in IMEM (Corning) with 5% FBS (Gibco) and 0.4% gentamicin sulfate (Lonza) and allowed to adhere overnight. The medium was changed to IMEM (Corning) with 1% charcoal-stripped FBS (HyClone) and 0.4% gentamicin sulfate for 48 hours. Cells were treated with the appropriate drug for 72 hours and with fresh drug after 48 hours. […] Data were collected using a FACScalibur or LSRII UV and analyzed with FlowJo 10.0.
# [4] = tested on: canonical ER signaling in BR7 cells; experiment: ER signaling mRNA expression (c-Myc, EEIG1) by real-time PCR, BR7 (PDX) cells; conditions: Tam for 24 hours
# Procedure: as §1
# (§3) Quantitative Real-Time PCR (RT-qPCR) and Analysis: RNA was extracted using Trizol as per the manufacturer's instructions. […] Fold change was calculated using the 2^−ΔΔCt method.
# [5] = tested on: canonical ER signaling in TamR cells; experiment: ER signaling mRNA expression (c-Myc, EEIG1) by real-time PCR, TamR cells; conditions: Tam for 24 hours
# Procedure: as §1, §3
Structure (SMILES),"resensitization to tamoxifen: survival (TamR cells (MCF7 LCC9) [1]; 20 nM RAD001 plus 1 μM 4-OH Tam, 10 days)",cell survival on cotreatment (TamR cells (MCF7 LCC9) [1]; RAD001 added to 1 μM 4-OHT plus 10 μM CGP57380),resensitization to tamoxifen: cell proliferation (TamR cells (MCF7 LCC9) [2]),"survival under tamoxifen (TamR cells (MCF7 LCC9) [1]; 1 μM 4-OH Tam, 10 days)",proliferation under tamoxifen (TamR cells (MCF7 LCC9) [3]),cell cycle distribution under tamoxifen (BR7 (PDX) cells),proliferation in the presence of tamoxifen (TamS cells (MCF7 LCC1)),tamoxifen-induced repression of canonical ER signaling [4],tamoxifen-induced repression of canonical ER signaling [5]
"CO[C@H]1C[C@@H]2CC[C@@H](C)[C@@](O)(O2)C(=O)C(=O)N2CCCC[C@H]2C(=O)O[C@H]([C@H](C)C[C@@H]2CC[C@@H](OCCO)[C@H](OC)C2)CC(=O)[C@H](C)/C=C(\C)[C@@H](O)[C@@H](OC)C(=O)[C@H](C)C[C@H](C)/C=C/C=C/C=C/1C [RAD001, Everolimus]",decreased survival,further additive reduction in cell survival,restoration of inhibition of cell proliferation,,,,,,
CC/C(=C(\c1ccccc1)c1ccc(OCCN(C)C)cc1)c1ccccc1 [tamoxifen],,,,maintain normal proliferation and survival,maintain normal proliferation and survival,normal cell cycle distribution,unable to proliferate,insensitive,insensitive
